Measured values as given in paper doi:10.1101/2023.11.08.566240v2, “Divergent Protein Kinase A contributes to the regulation of flagellar waveforms in Leishmania mexicana” (biorxiv, 2025).

Molecular target: T1, LmxPKAR1-LmxPKAC1 (mNG::PKAC1) (Leishmania mexicana, UniProt E9AP50)
T1 construct: gene LMXM_13_0160; with protein kinase A catalytic subunit isoform 1
T1 sequence (E9AP50 1-503): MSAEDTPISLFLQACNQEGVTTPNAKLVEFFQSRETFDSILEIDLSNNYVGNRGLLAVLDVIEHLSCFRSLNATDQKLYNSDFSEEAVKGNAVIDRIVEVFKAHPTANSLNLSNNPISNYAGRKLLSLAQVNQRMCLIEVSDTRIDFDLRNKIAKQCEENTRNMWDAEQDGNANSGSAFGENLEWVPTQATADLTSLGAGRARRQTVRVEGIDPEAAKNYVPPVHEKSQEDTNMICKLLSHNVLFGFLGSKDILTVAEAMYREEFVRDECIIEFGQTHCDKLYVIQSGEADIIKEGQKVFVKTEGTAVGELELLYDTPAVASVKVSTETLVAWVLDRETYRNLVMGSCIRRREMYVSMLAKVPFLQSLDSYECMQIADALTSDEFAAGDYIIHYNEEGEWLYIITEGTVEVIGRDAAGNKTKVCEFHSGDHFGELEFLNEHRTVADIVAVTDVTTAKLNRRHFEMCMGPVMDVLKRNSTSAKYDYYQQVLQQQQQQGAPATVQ
T1 sequence (E9B6S9 1-371 partner): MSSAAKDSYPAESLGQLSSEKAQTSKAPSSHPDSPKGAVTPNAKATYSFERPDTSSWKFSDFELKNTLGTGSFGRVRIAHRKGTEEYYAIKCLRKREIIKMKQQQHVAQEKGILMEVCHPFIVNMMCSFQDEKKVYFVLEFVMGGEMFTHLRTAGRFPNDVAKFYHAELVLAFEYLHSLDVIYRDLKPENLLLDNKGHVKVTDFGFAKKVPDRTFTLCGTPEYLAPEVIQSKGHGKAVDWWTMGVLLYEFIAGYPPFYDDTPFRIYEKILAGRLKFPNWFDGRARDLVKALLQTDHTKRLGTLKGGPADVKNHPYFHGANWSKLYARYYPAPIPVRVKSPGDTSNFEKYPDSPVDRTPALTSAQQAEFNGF
Experiment: release of mNG::PKAC1 fluorescence from flagellar cytoskeletons, microscopy
Type: biochemical
Conditions: indirect assay of PKAR1 activation; detergent-extracted cytoskeletons in PEME buffer; 10 nM to 10 µM inosine

**Q.** How did the EC50 turn out when OC[C@H]1O[C@@H](n2cnc3c(O)ncnc32)[C@H](O)[C@@H]1O [inosine] was run?
**A.** ~9 nM
